Data as given in the supplement of paper PMC6045584.
± gives the standard deviation of the averaged measurements.

The test systems below were run with NC1(c2ccc(-c3nc4ccn5c(=O)[nH]nc5c4cc3-c3ccccc3)cc2)CCC1 [MK2206] (assay: surviving fraction relative to DMSO-only wells; higher = less growth inhibition). Details: 0.5 nM; exposure time: 5 days.
Method in brief: (§1)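 Log-phase tumour cells were seeded at 250–500 per well in 384-well plates and, from 24 hours after seeding, exposed continuously for five days to inhibitors at 0.5, 1, 5, 10, 50, 100, 500 and 1000 nM. Surviving fraction is CellTiter-Glo luminescence normalised to the median of DMSO-only wells. Luminescence was measured after 10 minutes at room temperature, and only lines screened three times with replicate Pearson r >0.7 and median Z' >0.3 were kept.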

Test System | surviving fraction
C33A CERVIX | 0.919 ± 0.03
CAL72 BONE | 1.1 ± 0.024
G292 BONE | 0.96 ± 0.031
HCC1395 BREAST | 1.08 ± 0.18
HUO3N1 BONE | 1.03 ± 0.072
LNCAP PROSTATE | 0.974 ± 0.07
SCC003 HEADNECK | 1.09 ± 0.063

Same assay, conditions: 1 nM; exposure time: 5 days

Test System | surviving fraction
C33A CERVIX | 0.917 ± 0.026
CAL72 BONE | 1.1 ± 0.11
G292 BONE | 1.01 ± 0.06
HCC1395 BREAST | 0.985 ± 0.056
HUO3N1 BONE | 1.02 ± 0.045
LNCAP PROSTATE | 0.936 ± 0.075
SCC003 HEADNECK | 1.08 ± 0.049

Same assay, conditions: 5 nM; exposure time: 5 days

Test System | surviving fraction
C33A CERVIX | 1.05 ± 0.085
CAL72 BONE | 1.12 ± 0.06
G292 BONE | 0.997 ± 0.033
HCC1395 BREAST | 1.09 ± 0.16
HUO3N1 BONE | 1.02 ± 0.052
LNCAP PROSTATE | 0.87 ± 0.015
SCC003 HEADNECK | 1.07 ± 0.053

Same assay, conditions: 10 nM; exposure time: 5 days

Test System | surviving fraction
C33A CERVIX | 0.929 ± 0.029
CAL72 BONE | 1.11 ± 0.1
G292 BONE | 0.992 ± 0.031
HCC1395 BREAST | 1.04 ± 0.19
HUO3N1 BONE | 1.02 ± 0.051
LNCAP PROSTATE | 0.839 ± 0.092
SCC003 HEADNECK | 1.07 ± 0.14

Same assay, conditions: 50 nM; exposure time: 5 days

Test System | surviving fraction
C33A CERVIX | 1.01 ± 0.063
CAL72 BONE | 1.12 ± 0.019
G292 BONE | 0.893 ± 0.041
HCC1395 BREAST | 0.934 ± 0.057
HUO3N1 BONE | 0.897 ± 0.044
LNCAP PROSTATE | 0.529 ± 0.022
SCC003 HEADNECK | 1.03 ± 0.021

Same assay, conditions: 100 nM; exposure time: 5 days

Test System | surviving fraction
C33A CERVIX | 0.925 ± 0.058
CAL72 BONE | 1.16 ± 0.096
G292 BONE | 0.833 ± 0.018
HCC1395 BREAST | 1.1 ± 0.13
HUO3N1 BONE | 0.825 ± 0.036
LNCAP PROSTATE | 0.398 ± 0.0075
SCC003 HEADNECK | 1.09 ± 0.12

Same assay, conditions: 500 nM; exposure time: 5 days

Test System | surviving fraction
C33A CERVIX | 0.812 ± 0.084
CAL72 BONE | 1.06 ± 0.087
G292 BONE | 0.748 ± 0.054
HCC1395 BREAST | 0.89 ± 0.082
HUO3N1 BONE | 0.67 ± 0.023
LNCAP PROSTATE | 0.0787 ± 0.0097
SCC003 HEADNECK | 0.884 ± 0.05

Same assay, conditions: 1000 nM; exposure time: 5 days

Test System | surviving fraction
C33A CERVIX | 0.817 ± 0.042
CAL72 BONE | 1.05 ± 0.053
G292 BONE | 0.724 ± 0.026
HCC1395 BREAST | 0.817 ± 0.15
HUO3N1 BONE | 0.64 ± 0.014
LNCAP PROSTATE | 0.071 ± 0.0017
SCC003 HEADNECK | 0.717 ± 0.068

What follows are test systems tested with CN(Cc1cnc2nc(N)nc(N)c2n1)c1ccc(C(=O)N[C@@H](CCC(=O)O)C(=O)O)cc1 [METHOTREXATE] in the same assay as above. Details: 0.5 nM; exposure time: 5 days.
Method in brief: as §1

Test System | surviving fraction
C33A CERVIX | 1.01 ± 0.15
CAL72 BONE | 1.04 ± 0.15
G292 BONE | 1.01 ± 0.048
HCC1395 BREAST | 1.18 ± 0.047
HUO3N1 BONE | 1.05 ± 0.032
LNCAP PROSTATE | 0.965 ± 0.021
SCC003 HEADNECK | 1.09 ± 0.11

Same assay, conditions: 1 nM; exposure time: 5 days

Test System | surviving fraction
C33A CERVIX | 0.936 ± 0.025
CAL72 BONE | 1.02 ± 0.13
G292 BONE | 1.07 ± 0.032
HCC1395 BREAST | 1.08 ± 0.073
HUO3N1 BONE | 1.04 ± 0.059
LNCAP PROSTATE | 0.957 ± 0.042
SCC003 HEADNECK | 1.1 ± 0.033

Same assay, conditions: 5 nM; exposure time: 5 days

Test System | surviving fraction
C33A CERVIX | 0.987 ± 0.11
CAL72 BONE | 1.03 ± 0.13
G292 BONE | 1.04 ± 0.069
HCC1395 BREAST | 1.17 ± 0.035
HUO3N1 BONE | 1.084 ± 0.008
LNCAP PROSTATE | 0.961 ± 0.059
SCC003 HEADNECK | 1.16 ± 0.03

Same assay, conditions: 10 nM; exposure time: 5 days

Test System | surviving fraction
C33A CERVIX | 0.519 ± 0.048
CAL72 BONE | 1.04 ± 0.11
G292 BONE | 1.06 ± 0.042
HCC1395 BREAST | 1.17 ± 0.1
HUO3N1 BONE | 1.08 ± 0.016
LNCAP PROSTATE | 0.851 ± 0.061
SCC003 HEADNECK | 0.87 ± 0.052

Same assay, conditions: 50 nM; exposure time: 5 days

Test System | surviving fraction
C33A CERVIX | 0.592 ± 0.075
CAL72 BONE | 0.641 ± 0.051
G292 BONE | 1.02 ± 0.042
HCC1395 BREAST | 1.12 ± 0.058
HUO3N1 BONE | 0.991 ± 0.041
LNCAP PROSTATE | 0.575 ± 0.011
SCC003 HEADNECK | 0.594 ± 0.021

Same assay, conditions: 100 nM; exposure time: 5 days

Test System | surviving fraction
C33A CERVIX | 0.585 ± 0.05
CAL72 BONE | 0.323 ± 0.061
G292 BONE | 1.04 ± 0.029
HCC1395 BREAST | 1.26 ± 0.026
HUO3N1 BONE | 0.731 ± 0.029
LNCAP PROSTATE | 0.5 ± 0.024
SCC003 HEADNECK | 0.541 ± 0.026

Same assay, conditions: 500 nM; exposure time: 5 days

Test System | surviving fraction
C33A CERVIX | 0.566 ± 0.034
CAL72 BONE | 0.301 ± 0.054
G292 BONE | 1.017 ± 0.0058
HCC1395 BREAST | 1.03 ± 0.16
HUO3N1 BONE | 0.51 ± 0.035
LNCAP PROSTATE | 0.428 ± 0.018
SCC003 HEADNECK | 0.549 ± 0.042

Same assay, conditions: 1000 nM; exposure time: 5 days

Test System | surviving fraction
C33A CERVIX | 0.557 ± 0.034
CAL72 BONE | 0.303 ± 0.068
G292 BONE | 1.01 ± 0.024
HCC1395 BREAST | 1.09 ± 0.062
HUO3N1 BONE | 0.51 ± 0.046
LNCAP PROSTATE | 0.422 ± 0.032
SCC003 HEADNECK | 0.509 ± 0.037
